Reference: ChEMBL document CHEMBL1133336, “Synthesis of a cyanopeptide-analogue with trypsin activating properties” (Bioorg Med Chem Lett, 2000)

Legend:
Prothrombin = Prothrombin (Homo sapiens, UniProt P00734); experiment: Compound was tested for inhibition of thrombin
Plasminogen = Plasminogen (Homo sapiens, UniProt P00747); experiment: Compound was tested for inhibition of plasmin
Serine protease 1 [1] = molecular target: T1, Serine protease 1 (Homo sapiens, UniProt P07477); experiment: Compound was tested for inhibition of trypsin
Serine protease 1 [2] = molecular target: T1, Serine protease 1; experiment: Percent increase in the activity of trypsin by the compound at concentration between 20 mM and 40 mM

Chain of Plasminogen (P00747 97-580 limits assumed): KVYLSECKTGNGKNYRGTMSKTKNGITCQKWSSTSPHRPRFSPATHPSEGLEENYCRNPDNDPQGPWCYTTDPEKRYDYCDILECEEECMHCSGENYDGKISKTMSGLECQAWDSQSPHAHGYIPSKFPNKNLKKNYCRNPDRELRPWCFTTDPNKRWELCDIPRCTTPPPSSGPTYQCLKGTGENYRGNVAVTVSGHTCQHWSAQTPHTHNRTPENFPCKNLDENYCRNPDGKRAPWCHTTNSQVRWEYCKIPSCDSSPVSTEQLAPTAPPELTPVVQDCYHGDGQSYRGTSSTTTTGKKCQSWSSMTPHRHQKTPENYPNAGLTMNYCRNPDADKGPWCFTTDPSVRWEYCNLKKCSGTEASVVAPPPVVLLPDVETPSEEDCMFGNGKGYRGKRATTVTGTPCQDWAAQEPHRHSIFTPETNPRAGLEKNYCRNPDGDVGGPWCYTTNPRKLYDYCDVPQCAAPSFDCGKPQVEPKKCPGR
Chain of Plasminogen (P00747 581-810 limits assumed): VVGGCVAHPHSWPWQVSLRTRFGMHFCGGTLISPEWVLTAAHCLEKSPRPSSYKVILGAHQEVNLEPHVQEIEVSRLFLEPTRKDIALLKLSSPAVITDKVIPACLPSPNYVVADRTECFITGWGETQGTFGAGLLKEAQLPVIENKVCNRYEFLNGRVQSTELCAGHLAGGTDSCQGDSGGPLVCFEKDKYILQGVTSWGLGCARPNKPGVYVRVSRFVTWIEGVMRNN
T1 sequence (P07477 whole entry): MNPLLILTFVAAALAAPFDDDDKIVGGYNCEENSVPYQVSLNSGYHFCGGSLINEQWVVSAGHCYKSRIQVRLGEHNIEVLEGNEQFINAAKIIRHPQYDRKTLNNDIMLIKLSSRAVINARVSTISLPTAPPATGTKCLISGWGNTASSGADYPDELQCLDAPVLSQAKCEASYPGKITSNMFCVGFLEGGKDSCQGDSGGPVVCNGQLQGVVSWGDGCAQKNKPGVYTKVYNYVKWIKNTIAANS

SMILES	IC50 (Prothrombin)	IC50 (Plasminogen)	IC50 (Serine protease 1 [1])	Increase (Serine protease 1 [2])
N=C(N)N1CCC[C@H](NC(=O)C2CC3CCC(O)CC3N2C(=O)[C@@H](Cc2ccc(O)cc2)NC(=O)[C@H](O)Cc2ccc(OS(=O)(=O)O)cc2)C1O (stereo not given in full)	54.6 nM	409 nM	273 nM	
CCC(C)C(NC(=O)CCc1ccc(O)cc1)C(=O)N1CCN(CCOC(=O)C2CCCN2)CC1 (stereo not given)				70%
CC[C@H](C)[C@H](NC(=O)C(O)Cc1ccc(O)cc1)C(=O)N1C2CC(OS(=O)(=O)O)CCC2C[C@H]1C(=O)NCCCCN=C(N)N (stereo not given in full)	15300 nM	10700 nM	916 nM	
CC[C@H](C)[C@H](NC(=O)C(O)Cc1ccc(O)c(Cl)c1)C(=O)N1C2CC(OS(=O)(=O)O)CCC2C[C@H]1C(=O)NCCCCN=C(N)N (stereo not given in full)	10200 nM	8710 nM	871 nM	
